What was measured:
[1] = test system: control plasmid lacking 5′ UTR; assay: In vitro translation assay, control lacking 5′ UTR; type: biochemical
Experimental: Luciferase assay. The effect of Synucleozid treatment on translation from various IRE containing transcripts was determined using luciferase reporter assay. SH-SY5Y cells stably expressing 5' UTR were treated with Synucleozid for 48 h, washed with PBS and lysed with Passive Lysis Buffer for 15 min at room temperature. Luciferase reporter activity in each lysate was monitored using the dual luciferase reporter assay system kit (Promega. Madison, Wis., USA) according to the manufacturer's instructions. Luminescence from firefly luciferase reaction was measured using a microplate luminometer (Wallac 1420, Perkin Elmer) at 485 nm excitation and 535 nm emission wavelengths. Firefly luciferase reaction was then quenched by adding Stop & Glo reagent, and the internal fluorescence from GFP measured at the same setting was used to normalize luciferase expression. Luciferase reporter activity was expressed as percent change compared to the respective vehicle-treated control cells. In vitro translation assay. The mRNA template for in vitro translational assays was transcribed from the pIRES-Luc-EGFP-puro and pCDH-α-syn-5'-UTR-Luc-EGFP-puro plasmids by using an in vitro transcription system (RiboMax, Promega) with forward primer: [NT] and reverse primer: [NT]. […] Translation proceeded at 30° C. for 90 min, and then luminescence was measured with a Biomek FLx800 plate reader (1.0 s integration time).

SH-SY5Y cells = assay: LDH release cytotoxicity assay; type: cell-based, human; settings: 0.25, 0.5 and 1 μM, 48 h
Experimental: To assess if Synucleozid has a cytotoxic effect, SH-SY5Y cells were treated with 0.25, 0.5 and 1 μM for 48 h, and cell viability and cytotoxicity were measured using CellTiter 96 Aqueous One Solution Cell Proliferation Assay (MTS) and LDH release assay, respectively, according to the manufacturers' instructions.

[2] = test system: 2-AP labeled SNCA IRE RNA; assay: 2-AP emission assay; type: binding, human; settings: decrease of 2-AP emission
Experimental: 2-AP emission assay. One μM 2-AP labeled SNCA IRE RNA was folded by heating to 65° C. for 5 min in 1× Assay Buffer and slowly cooling to room temperature. Bovine serum albumin (BSA) was then added to the RNA solution to 40 μg/mL. After adding Synucleozid to RNA solution at a final concentration […] of 100 μM, serial dilutions were prepared using 1× Assay Buffer including BSA supplemented with folded one μM 2-AP labeled SNCA IRE RNA. The solutions were incubated at room temperature for 30 min in dark and transferred into wells of black 384-well half area plates (Greiner). Fluorescence intensity was measured at room temperature with Tecan plate reader (Gain: 100, Integration time: 40 μs). Fluorescence excitation and emission wavelengths were set at 310 and 380 nm. The change of 2-AP fluorescence intensity as a function of Synucleozid concentration was fit to Eq. (1):
EC50 was calculated from Eq. (1).

SH-SY5Y cells proteome = assay: Proteomics profiling by mass spectrometry; type: cell-based, human; settings: 48 h
Experimental: Treatment with Synucleozid and siRNA for proteomics profiling using Mass Spectrometry. SH-SY5Y cells were cultured in 100 mm dishes to 60% confluency and treated with 1.5 μM of Synucleozid or DMSO, or transfected with 0.1 μM α-synuclein siRNA (ON-TARGETplus Human SNCA siRNA-SMARTpool) or scramble siRNA (ON-TARGETplus Non-targeting siRNA) using Lipofectamine RNAiMAX (Invitrogen) according to the manufacturer's instructions for 48 h. Cells were gently washed twice with ice-cold PBS, detached and lysed in PBS via sonication. […] Same samples were then denatured in 6 M urea in 50 mM NH4HCO3, reduced with 10 mM tris(2-carboxyethyl)phosphine hydrochloride (TCEP) for 30 min, and alkylated with 25 mM iodoacetamide for 30 min, in the dark at room temperature. Samples were diluted to 2 M urea with 50 mM NH4HCO3, and digested with trypsin (Thermo Scientific, 1.5 μL of 0.5 μg/μL) in the presence of 1 mM CaCl2 (100× stock in water). The digestion was performed for 12 h at 37° C. Samples were acidified to a final concentration of 5% acetic acid, desalted over a self-packed C18 spin column, and dried. Samples were then analyzed by LC-MS/MS (see below). The MS data were processed with MaxQuant.
LC-MS/MS analysis. Peptides from samples described above were resuspended in water with 0.1% formic acid and analyzed using EASY-nLC 1200 nano-UHPLC coupled to Q Exactive HF-X Quadrupole-Orbitrap mass spectrometer (Thermo Scientific). The chromatography column consists 30 cm long, 75 μm i.d. microcapillary capped by a 5 μm tip and packed with ReproSil-Pur 120 C18-AQ 2.4 μm beads (Dr. Maisch GmbH). LC solvents had two buffers which were Buffer A (0.1% formic acid in H2O) and Buffer B (0.1% formic acid in 90% MeCN:10% H2O). Peptides from samples described above were eluted into the mass spectrometer at a flow rate of 300 nL/min over a 240 min linear gradient (5-35% Buffer B) at 65 C. Data-dependent mode (top-20, NCE 28, R=7500) was used to acquire data after full MS scan (R=60000, m/z 400-1300). Dynamic exclusion was 10 s. Peptide match was set to prefer. Isotope exclusion was enabled.
MaxQuant analysis. MaxQuant (11) (V1.6.1.0) was used to analyze the mass spectrometer data. Data was searched against the human proteome (Uniprot) and a list of contaminants (included in MaxQuant). The first and main peptide search tolerance were set to 20 ppm and 10 ppm respectively. Fragment mass tolerance was set to 0.02 Da. The false discovery rate (FDR) was 1% for proteins, peptides, and sites identification. The minimum peptide length was set to 6 amino acids (AA). Peptide requantification, label-free quantification (MaxLFQ), “match between runs” were all enabled. The minimal number of peptides for every protein was set to 2. A variable modification was set to be methionine oxidation, and a fixed modification was set to be carbamidomethylation of cysteines in searches.

PrP 5′ UTR = settings: SH-SY5Y cells
tRNA = assay: Competitive binding assay (2-AP), tRNA
Experimental: (§1) I and I0 are the observed fluorescence intensity in the presence and absence of 2-AP RNA. Δε is the difference between the fluorescence intensity in the absence and presence of infinite 2-AP RNA. […] EC50 was calculated from Eq. (1). […] The change of fluorescence intensity was fit to Eq. (2):
(§2) θ is the percentage of 2-AP RNA bound. [RNA] is the concentration of 2-AP RNA. EC50 is the EC50 of Synucleozid determined in the assay above. [Synucleozid] is the concentration of Synucleozid. Cc is the concentration of competitive RNA. Kd is competitive dissociation constant and A is a constant.

[3] = test system: RNA-2 to 5 (other non-canonically paired regions replaced with base pairs); assay: Competitive binding assay (2-AP), RNA-2 to 5
Experimental: as §1, §2

[4] = Synucleozid 1.5 μM vs vehicle, siRNA 0.1 μM vs scrambled control siRNA

Q: `N=C(N)c1ccc(Nc2ccc(-c3cc4ccc(C(=N)N)cc4[nH]3)cc2)cc1` [Synucleozid A] was tested. Which “inhibitory effect on construct lacking SNCA 5′ UTR” value [1] did it give?
A: No inhibitory effect

Q: And the “LDH release (cytotoxicity)” value (SH-SY5Y cells)?
A: no toxicity

Q: What about the “LDH release (cytotoxicity)” value (SH-SY5Y cells; listed as Synucleozid) of the same compound?
A: no effect

Q: And the EC50 [2]?
A: 2720 ± 370 nM

Q: And the EC50 ([2]; listed as Synucleozid)?
A: 2700 ± 400 nM

Q: What about the “effect on proteins encoded by mRNAs with IREs (ACO2, NDUFS1, CDC42BPB, FTH1)” value (SH-SY5Y cells proteome; 1.5 μM) of the same compound?
A: Only FTH1 was affected

Q: What about the “number of proteins downregulated” value (SH-SY5Y cells proteome; [4]) of the same compound?
A: 143

Q: What about the “number of proteins with increased expression” value (SH-SY5Y cells proteome; [4]) of the same compound?
A: 140

Q: What about the “proteins affected, percentage of detected” value (SH-SY5Y cells proteome; [4]) of the same compound?
A: 8%

Q: What about the “proteins downregulated, % of all proteins” value (SH-SY5Y cells proteome; [4]) of the same compound?
A: 4.3%

Q: What about the “proteins with increased expression, % of all proteins” value (SH-SY5Y cells proteome; [4]) of the same compound?
A: 4.2%

Q: What about the “number of proteins affected among 3300 detected” value (SH-SY5Y cells proteome; Synucleozid 1.5 μM vs vehicle, siRNA 0.1 μM vs scrambled control siRNA, adjusted p-value <0.01) of the same compound?
A: 283

Q: And the “effect on translation of luciferase fused to PrP 5′ UTR” value (PrP 5′ UTR)?
A: no effect

Q: And the “competitor RNA concentration needed for recovery of 2-AP emission” value (tRNA)?
A: > 100 µM

Q: What about the “effect of mutation on Synucleozid binding” value [3] of the same compound?
A: no effect

Reference: US20230054976A1, “METHODS FOR INHIBITION OF ALPHA-SYNUCLEIN mRNA USING SMALL MOLECULES” (The Scripps Research Institute, priority 2019, published 2023)
